Data from patent US20250295679A1, “Compositions and Dosage Forms for Treatment of HPV Infection and HPV-Induced Neoplasia” (priority 2022, published 2025).

How the values were obtained:
[1] = Hygroscopicity by DVS at 25° C.; assay type: physicochemical; conditions: for XRPD after DVS test: 25° C.
Description: Hygroscopicity was investigated by DVS at 25° C., using the following method: • Method: 40-0-95-0-40% RH, dm/dt=0.002

[2] = Bulk (accelerated) stability, one week, HPLC and XRPD; conditions: for Bulk (HPLC) Purity: 1 week
Description: Bulk stability: Accelerated stability experiments were conducted at 25° C./92% RH and 40° C./75% RH in an open container, 60° C. in a tight container for one week.
Samples were characterized by XRPD and HPLC and inspected for color change.
Accelerated stability experiments were conducted at 25° C./92% RH in an open container, at 40° C./75% RH in an open container, and at 60° C. in a tight container for one week.

[3] = Hygroscopicity by DVS at 25° C.; assay type: physicochemical; conditions: cycle of 40-0-95-0-45% relative humidity
[4] = Polymorph screening by equilibration in solvents; assay type: physicochemical
[5] = Solubility in buffers, water and simulated vaginal fluid at 37° C.; conditions: for pH of solution at 2 hours: 37° C.
Description: About 4 mg of Compound I Pattern 1 was added into 2 mL of buffer solution.
(§1) Solubility was tested in five media, pH 3.0 citrate buffer, pH 4.5 acetate buffer, pH 6.8 phosphate buffer, water, simulated vaginal fluid (pH 4.2) at 37° C. for 0.5 h and 2 h.
The salt amount used is equivalent to 10 mg anhydrous free base. […] The obtained clear solutions were analyzed by pH meter for pH, and solubility was determined by observation.
as §1

[6] = 37 °C, pH 3, aqueous buffer, thermodynamic from solid
[7] = 37 °C, pH 4.2, fassgf or other biorelevant, thermodynamic from solid
[8] = 37 °C, pH 4.5, aqueous buffer, thermodynamic from solid
[9] = 37 °C, pH 6.8, aqueous buffer, thermodynamic from solid
[10] = 37 °C, water, thermodynamic from solid

With `CCOC(=O)[C@H](C)N[P@](=O)(COCCn1cnc2c(OC)nc(N)nc21)OCc1ccccc1.O=C(O)/C=C/C(=O)O` (single isomer, unassigned) [Compound III] the “Desorp. (%) Cycle 1” value ([1]; DVS 25° C., 0% RH) was 0.00%, the “Desorp. (%) Cycle 2” value ([1]; DVS 25° C., 0% RH) was 0.00% and the “Sorp. (%) Cycle 1” value ([1]; DVS 25° C., 0% RH) was 0.00%. The “Sorp. (%) Cycle 2” value ([1]; DVS 25° C., 0% RH) was 0.00%, the “Desorp. (%) Cycle 1” value ([1]; DVS 25° C., 10% RH) was 0.07% and the “Desorp. (%) Cycle 2” value ([1]; DVS 25° C., 10% RH) was 0.07%. For the same compound, the “Sorp. (%) Cycle 1” value ([1]; DVS 25° C., 10% RH) was 0.07%, the “Sorp. (%) Cycle 2” value ([1]; DVS 25° C., 10% RH) was 0.07% and the “Desorp. (%) Cycle 1” value ([1]; DVS 25° C., 20% RH) was 0.15%. For the same compound, the “Desorp. (%) Cycle 2” value ([1]; DVS 25° C., 20% RH) was 0.15%, the “Sorp. (%) Cycle 1” value ([1]; DVS 25° C., 20% RH) was 0.14% and the “Sorp. (%) Cycle 2” value ([1]; DVS 25° C., 20% RH) was 0.14%. For the same compound, the “Desorp. (%) Cycle 1” value ([1]; DVS 25° C., 30% RH) was 0.23%, the “Desorp. (%) Cycle 2” value ([1]; DVS 25° C., 30% RH) was 0.23% and the “Sorp. (%) Cycle 1” value ([1]; DVS 25° C., 30% RH) was 0.22%. For the same compound, the “Sorp. (%) Cycle 2” value ([1]; DVS 25° C., 30% RH) was 0.22%, the “Desorp. (%) Cycle 1” value ([1]; DVS 25° C., 40% RH) was 0.30% and the “Desorp. (%) Cycle 2” value ([1]; DVS 25° C., 40% RH) was 0.32%. The “Sorp. (%) Cycle 1” value ([1]; DVS 25° C., 40% RH) was 0.29%, the “Sorp. (%) Cycle 2” value ([1]; DVS 25° C., 40% RH) was 0.30% and the “Desorp. (%) Cycle 2” value ([1]; DVS 25° C., 50% RH) was 0.41%. The “Sorp. (%) Cycle 1” value ([1]; DVS 25° C., 50% RH) was 0.39%, the “Desorp. (%) Cycle 2” value ([1]; DVS 25° C., 60% RH) was 0.52% and the “Sorp. (%) Cycle 1” value ([1]; DVS 25° C., 60% RH) was 0.47%. For the same compound, the “Desorp. (%) Cycle 2” value ([1]; DVS 25° C., 70% RH) was 0.67%, the “Sorp. (%) Cycle 1” value ([1]; DVS 25° C., 70% RH) was 0.59% and the “Desorp. (%) Cycle 2” value ([1]; DVS 25° C., 80% RH) was 0.81%. For the same compound, the “Sorp. (%) Cycle 1” value ([1]; DVS 25° C., 80% RH) was 0.71%, the “Desorp. (%) Cycle 2” value ([1]; DVS 25° C., 90% RH) was 0.97% and the “Sorp. (%) Cycle 1” value ([1]; DVS 25° C., 90% RH) was 0.92%. The “Desorp. (%) Cycle 2” value ([1]; DVS 25° C., 95% RH) was 1.01%, the “Sorp. (%) Cycle 1” value ([1]; DVS 25° C., 95% RH) was 1.01% and the Hygroscopicity ([1]; DVS at 25° C., in words) was “slightly hygroscopic”. For the same compound, the “XRPD after DVS test” value ([1]; after DVS 40-0-95-0-40% RH) was “No form change”, the “XRPD after DVS test” value ([1]; after humidity cycle 40-0-95-0-40% RH, listed as Compound III Pattern 2, monofumarate) was “No form change” and the “XRPD after DVS test” value ([1]; after humidity cycle 40-0-95-0-40% RH, monofumarate) was “lose one of the peaks”. The Water uptake ([1]; up to / in 95% RH, DVS 25° C.) was “about 1.0%”, the “Stability after exposure to the three conditions” value ([2]; 25° C./92% RH open, 40° C./75% RH open, 60° C. tight container, one week) was “good physical stability” and the “Bulk (HPLC) Purity” value ([2]; BS1: solid state, 25° C./92% RH, open container) was 98.7%. The “Bulk (HPLC) Purity” value ([2]; BS2: solid state, 40° C./75% RH, open container) was 97.2%, the “Bulk (HPLC) Purity” value ([2]; BS3: solid state, 60° C., tight container) was 97.3% and the “HPLC purity, Initial” value ([2]; initial chemical purity before storage) was 98.8%. For the same compound, the “Fold increase of retained water content over Compound II” value [3] was 40 fold, the “Crystal modification after 1 week equilibration at 25° C.” value (“Crystal modification” for short) ([4]; PS1: IPA) was “Compound V Pattern 2” and the “Crystal modification” value ([4]; PS2: Heptanes) was “Compound III Pattern 2”. The “Crystal modification” value ([4]; PS3: Water) was “Compound III Pattern 3”, the “Crystal modification” value ([4]; PS4: ACN) was “Compound III Pattern 4” and the “Crystal modification” value ([4]; PS5: MEK) was “Compound III Pattern 5”. The “Crystal modification” value ([4]; PS7: IPA/heptanes (3/10, v/v)) was “Compound III Pattern 2”, the “Crystal modification” value ([4]; PS8: water/ACN (2.9/97.1, v/v)) was “Compound III Pattern 4” and the “Crystal modification” value ([4]; PS9: IPA/MTBE (1/3, v/v)) was “Compound III Pattern 6”. The “Crystal modification” value ([4]; PS10: EA/toluene (1/3, v/v)) was “Compound III Pattern 2”, the “Dissociation of the salt during equilibration experiments” value ([4]; equilibration in solvents, 1 week, 25° C.) was “dissociation was observed” and the solubility at 0.5 h [5, 6] was over 2000 µg/mL. The solubility at 2 h [5, 6] was over 2000 µg/mL, the solubility at 0.5 h [5, 7] was over 2000 µg/mL and the solubility at 2 h [5, 7] was over 2000 µg/mL. For the same compound, the solubility at 0.5 h [5, 8] was over 2000 µg/mL, the solubility at 2 h [5, 8] was over 2000 µg/mL and the solubility at 0.5 h [5, 9] was over 2000 µg/mL. For the same compound, the solubility at 2 h [5, 9] was over 2000 µg/mL, the solubility ([5]; 37 °C, thermodynamic from solid) was over 2000 µg/mL and the solubility at 0.5 h [5, 10] was over 2000 µg/mL. For the same compound, the solubility at 2 h [5, 10] was over 2000 µg/mL, the “pH of solution at 2 hours” value ([5]; ES1: pH 3.0, 100 mM citrate buffer) was 2.83 and the “pH of solution at 2 hours” value ([5]; ES2: pH 4.5, 50 mM acetate buffer) was 4.12. For the same compound, the “pH of solution at 2 hours” value ([5]; ES3: pH 6.8, 50 mM phosphate buffer) was 6.44, the “pH of solution at 2 hours” value ([5]; ES4: Water) was 2.78 and the “pH of solution at 2 hours” value ([5]; ES5: Simulated vaginal fluid (pH adjusted by 0.1N NaOH)) was 5.37.
